Experimental findings from patent US11458138B2 (Novartis AG, priority 2017, dated 2022) are described below.

For one assay, the target named is LATS1 (Homo sapiens (Human), UniProt O95835). The assay can be described thus: LATS1 biochemical assay (Table 1A, Compound Examples 1-290; method in the earlier part).
In assay [1] the target is Human LATS2 kinase domain protein (Homo sapiens (Human), UniProt Q9NRM7). The assay can be described thus: LATS2 Biochemical Caliper Assay (Compound Examples 1-290). The settings on record: 400 micromolar ATP. On the procedure:
Human LATS2 kinase domain protein was purchased from Carnabio (catalogue number 01-124), which harbors the catalytic domain of amino acids 553-1088, and was co-purified with human His-tagged MOBKL1A (NP_775-739). 5 microlitre of enzyme buffer, 100 nL of compounds and 5 microlitre of localising aid buffer were added into 384-well plates. […] The plates were incubated at 25° C. for 3 hours. 40 microlitre of stop buffer with 25 mM EDTA (NanoSyn) was added to each well to terminate the reaction. Localising aids and products were separated electrophoretically using the microfluidic-based Caliper Labchip 3000 Drug Discovery System (Caliper Life Sciences). Plates were read using blue laser excitation and green fluorescence detection and quantified by fluorescence intensity.

Assay [2] deals with YAP nuclear translocation in HaCaT cells. The assay can be described thus: YAP Translocation Assay (HaCaT Cells). It counts as cell-based, human. The settings on record: Homo sapiens, 24 hours. A digest of the protocol: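 HaCaT cells (20,000/well) in DMEM + 10% FBS were plated overnight at 37° C, then exposed to compound for 24 h at 37° C. Cells were fixed with PFA, permeabilized with 0.1% Triton/1.5% BSA and imaged by high-content imaging.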

Assay [3] addresses Human LATS1 kinase domain protein (Homo sapiens (Human), UniProt O95835). The assay can be described thus: LATS1 Biochemical Caliper Assay (Compound Examples 291-335). Particulars: Caliper EZ Reader. The method, then:
The LATS1 biochemical Caliper assay was performed as following.
Human LATS1 kinase domain protein was purchased from Carnabio (catalogue number 01-123; lot 15CBS-0098D). Human LATS1, catalytic domain [589-1130(end) amino acids of accession number NP_004681.1] was co-expressed as N-terminal GST-fusion protein (90 kDa) with human His-tagged MOBKL1A [1-216(end) amino acids of accession number NP_775739.1] using baculovirus expression system. GST-LATS1 was purified by using glutathione sepharose chromatography. The substrate (Fluo-SGKtide; Peptide for LATS1; lot BS-41067) has the following sequence: 5-Fluo-Nva-[…]-amide (SEQ ID NO: 27) x TFA and was purchased from Biosyntan.
The reaction is performed in reaction buffer containing 50 mM Hepes pH 7,5; 0.02% Tween20; 0.02% BSA; 1 mM DTT; 10 uM Na3VO4 and 10 mM beta-Glycerolphosphat and fresh added 1 mM MgCl2 and qsp H2O.
The substrate solution (2× conc.) in Reaction Buffer contains 300 μM ATP and 4 μM Fluo-SGKtide.
The kinase solution (2× conc.) in Reaction Buffer contains 20 nM LATS1 kinase. 4.5 μL of 2× conc. Kinase solution, 50 nL of 1.8 mM compounds and 4.5 μL of substrate solution were added into 384-well plates black small volume from Greiner and incubated at 32° C. for 1 hour. 15 μL of stop buffer containing 100 mM Hepes pH 7,5; 5% DMSO; 0.1% Coating reagent; 10 mM EDTA and 0.02% Brij35 and qsp H2O to each well to terminate the reaction.
Substrates and products were electrophoretically separated using the microfluidic-based Caliper EZ Reader System (Caliper Life Sciences) using a 12 sipper chip (cat 760404). The separation takes place in Coating Buffer (idem Stop buffer) and containing 0.1% Coating reagent CR3 and 0.5% coating reagent CR8 (Perkin Elmer).
Plates were read using a LED with an excitation at 488 nm and a detection at 520 nm to 5 quantify the fluorescence intensity.

Assay [4] concerns Phospho-YAP (Ser127) in JHH-5 cells. Nature of the assay: pYAP HTRF Assay (JHH-5 cells). In kind it is cell-based. Particulars: 2 hours. A digest of the protocol: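 Phospho-YAP read by HTRF (665 nm/620 nm ×10000) in lysates after overnight 18 h antibody incubation at room temperature. Compound treatment lasted 2 h at 37 °C, on JHH-5 cells plated 24 h earlier at 24000 per well in William's E medium with 10% FBS.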
Background: In TR-FRET formats the signal depends on donor and acceptor labels being close together.

Bounds are passed on as bounds.

Usually IC50 stands for the concentration needed to halve the response being measured. A lower IC50 goes with greater potency. Broadly, the EC50 is the concentration needed to bring the measured effect to its halfway point. Low readings indicate an effect from little substance, high ones a need for much substance.

Human LATS1 kinase domain protein, sequence (O95835 whole entry, looked up, the tested form may be a part): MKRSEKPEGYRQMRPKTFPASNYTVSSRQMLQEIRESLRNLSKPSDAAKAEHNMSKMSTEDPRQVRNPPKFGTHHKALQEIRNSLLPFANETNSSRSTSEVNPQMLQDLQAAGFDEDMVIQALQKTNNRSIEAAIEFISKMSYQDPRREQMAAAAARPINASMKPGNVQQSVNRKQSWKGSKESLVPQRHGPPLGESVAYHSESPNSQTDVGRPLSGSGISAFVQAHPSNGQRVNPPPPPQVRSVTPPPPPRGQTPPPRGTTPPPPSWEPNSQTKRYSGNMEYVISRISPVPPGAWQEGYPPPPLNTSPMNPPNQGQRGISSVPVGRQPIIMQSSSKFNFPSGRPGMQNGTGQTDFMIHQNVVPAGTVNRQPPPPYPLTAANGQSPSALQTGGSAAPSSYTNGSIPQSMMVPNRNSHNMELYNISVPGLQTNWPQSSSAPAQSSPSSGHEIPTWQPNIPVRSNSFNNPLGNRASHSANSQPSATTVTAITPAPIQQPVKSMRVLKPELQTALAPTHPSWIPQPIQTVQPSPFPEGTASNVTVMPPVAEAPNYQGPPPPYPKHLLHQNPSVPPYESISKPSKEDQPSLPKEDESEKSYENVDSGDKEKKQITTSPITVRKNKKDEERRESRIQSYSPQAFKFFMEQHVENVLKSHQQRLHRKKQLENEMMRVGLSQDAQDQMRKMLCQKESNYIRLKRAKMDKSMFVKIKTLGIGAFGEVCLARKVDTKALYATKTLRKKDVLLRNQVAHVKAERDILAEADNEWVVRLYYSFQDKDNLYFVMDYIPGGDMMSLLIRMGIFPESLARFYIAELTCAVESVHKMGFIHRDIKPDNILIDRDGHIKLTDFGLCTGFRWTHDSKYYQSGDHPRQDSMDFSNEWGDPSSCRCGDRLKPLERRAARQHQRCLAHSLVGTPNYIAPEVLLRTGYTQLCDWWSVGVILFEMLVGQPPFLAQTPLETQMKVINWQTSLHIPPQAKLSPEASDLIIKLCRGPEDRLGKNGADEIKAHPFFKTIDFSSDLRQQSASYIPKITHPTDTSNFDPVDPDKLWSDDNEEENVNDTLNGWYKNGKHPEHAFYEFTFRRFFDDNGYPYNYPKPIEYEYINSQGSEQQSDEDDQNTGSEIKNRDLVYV
Human LATS1 kinase domain protein, sequence (Q7L9L4 whole entry partner, looked up, the tested form may be a part): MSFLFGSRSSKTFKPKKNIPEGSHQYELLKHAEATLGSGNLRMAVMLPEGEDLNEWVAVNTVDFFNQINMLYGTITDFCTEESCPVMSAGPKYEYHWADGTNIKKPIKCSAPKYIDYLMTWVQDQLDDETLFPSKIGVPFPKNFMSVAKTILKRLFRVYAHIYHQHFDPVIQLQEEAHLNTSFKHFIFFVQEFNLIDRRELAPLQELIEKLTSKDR
LATS1, sequence (O95835 whole entry, looked up, the tested form may be a part): as the sequence (O95835 whole entry, looked up, the tested form may be a part) above
LATS1, sequence (Q7L9L4 whole entry partner, looked up, the tested form may be a part): as the sequence (Q7L9L4 whole entry partner, looked up, the tested form may be a part) above
Human LATS2 kinase domain protein, sequence (Q9NRM7 553-1088): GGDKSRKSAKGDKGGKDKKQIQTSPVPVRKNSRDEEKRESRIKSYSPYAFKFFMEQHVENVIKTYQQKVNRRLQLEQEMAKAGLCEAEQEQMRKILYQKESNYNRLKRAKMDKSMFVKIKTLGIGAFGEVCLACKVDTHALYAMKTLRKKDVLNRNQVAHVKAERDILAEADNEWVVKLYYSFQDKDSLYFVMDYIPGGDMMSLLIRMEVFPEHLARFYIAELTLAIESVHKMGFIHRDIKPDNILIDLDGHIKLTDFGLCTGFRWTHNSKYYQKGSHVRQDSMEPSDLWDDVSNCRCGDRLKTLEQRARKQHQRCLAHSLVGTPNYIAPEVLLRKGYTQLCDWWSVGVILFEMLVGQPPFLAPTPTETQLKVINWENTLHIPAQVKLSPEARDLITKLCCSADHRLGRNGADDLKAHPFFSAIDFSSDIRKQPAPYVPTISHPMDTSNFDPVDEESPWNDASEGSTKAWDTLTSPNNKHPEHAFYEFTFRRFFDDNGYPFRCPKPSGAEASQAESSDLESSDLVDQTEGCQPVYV
Human LATS2 kinase domain protein, sequence (Q7L9L4 whole entry partner, the tested form may be a part): as the sequence (Q7L9L4 whole entry partner, looked up, the tested form may be a part) above

As for `Cn1nccc1-c1nc(NC2(C)CCC2)c2ccncc2n1` [Example 186, 2-(1-methyl-1H-pyrazol-5-yl)-N-(1-methylcyclobutyl)pyrido[3,4-d]pyrimidin-4-amine], the IC50 against LATS1 came to 9 nM; in assay [1], 50 nM. The compound further displayed an EC50 in assay [2] greater than 20000 nM.

For the compound `FC(F)(F)C1(Nc2cc(-c3ccncc3)nc3cnccc23)CCC1` [Example 294, 2-(pyridin-4-yl)-N-(1-(trifluoromethyl)cyclobutyl)-1,7-naphthyridin-4-amine], the figures for the IC50 in assay [3] and in assay [4] were 4.5 nM and 1100 nM, respectively.

Take `CC(C)(N)CNc1cc(-c2ccncc2)nc2cnccc12` [Example 295, 2-methyl-N1-(2-(pyridin-4-yl)-1,7-naphthyridin-4-yl)propane-1,2-diamine]: the values for the IC50 in assay [3] and in assay [4] were 10 nM and greater than 10000 nM, respectively.

As for `CC1(Nc2cc(-c3ccncc3)nc3cnccc23)CC1` [Example 297, N-(1-methylcycloropyl)-2-(pyridin-4-yl)-1,7-naphthyridin-4-amine], the values for the concentration for half-maximal inhibition (IC50) in assay [3] and in assay [4] were 7.5 nM and greater than 10000 nM, respectively.

Consider `CC1(Nc2cc(-c3ccncc3)nc3cnccc23)CCC1` [Example 300, N-(1-methylcyclobutyl)-2-(pyridin-4-yl)-1,7-naphthyridin-4-amine], for which the results for the half-inhibitory concentration (IC50) in assay [3] and in assay [4] were 1.2 nM and 900 nM, respectively.

With `CC(C)(CN)CNc1cc(-c2ccncc2)nc2cnccc12` [Example 301, 2,2-dimethyl-N1-(2-(pyridin-4-yl)-1,7-naphthyridin-4-yl)propane-1,3-diamine], the 50% inhibitory concentration (IC50) is 5.2 nM in assay [3] and greater than 10000 nM in assay [4].

Consider `CC(CN)CNc1cc(-c2ccncc2)nc2cnccc12` (stereo not shown) [Example 304, 2-methyl-N^1-(2-(pyridin-4-yl)-1,7-naphthyridin-4-yl)propane-1,3-diamine], for which the IC50 in assay [3] is 9.6 nM; in assay [4], greater than 10000 nM.

For the compound `CN(c1cc(-c2ccncc2)nc2cnccc12)C(C)(C)C` [Example 306, N-(tert-butyl)-N-methyl-2-(pyridin-4-yl)-1,7-naphthyridin-4-amine], the figures for the half-inhibitory concentration (IC50) in assay [3] and in assay [4] were 1.2 nM and 1000 nM, respectively.

Consider `CC1(Nc2cc(-c3ccncn3)nc3cnccc23)CCC1` [Example 307, N-(1-methylcyclobutyl)-2-(pyrimidin-4-yl)-1,7-naphthyridin-4-amine], for which the half-inhibitory concentration (IC50) in assay [3] was 1.9 nM; in assay [4], 1300 nM.

For `CN(C)CCC(C)(C)Nc1nc(-c2ccncn2)nc2cnccc12` [Example 308, N^1,N^1,3-trimethyl-N^3-(2-(pyrimidin-4-yl)pyrido[3,4-d]pyrimidin-4-yl)butane-1,3-diamine], the figures for the IC50 in assay [3] and in assay [4] were 68.7 nM and greater than 10000 nM, respectively.

`Cc1n[nH]cc1-c1nc(NC(C)(C)CCN(C)C)c2ccncc2n1` [Example 309, N^1,N^1,3-trimethyl-N^3-(2-(3-methyl-1H-pyrazol-4-yl)pyrido[3,4-d]pyrimidin-4-yl)butane-1,3-diamine]: the values for the concentration for half-maximal inhibition (IC50) in assay [3] and in assay [4] were 0.8 nM and 2000 nM, respectively.

With `CC(C)(N)CNc1nc(-c2ccncc2)nc2cnccc12` [Example 312, 2-methyl-N^1-(2-(pyridin-4-yl)pyrido[3,4-d]pyrimidin-4-yl)propane-1,2-diamine], the IC50 in assay [3] turned out to be 2.4 nM; in assay [4] it was 7700 nM.

With `NCCNc1nc(-c2ccncc2)nc2cnccc12` [Example 313, N-(2-(pyridin-4-yl)pyrido[3,4-d]pyrimidin-4-yl)ethane-1,2-diamine], the 50% inhibitory concentration (IC50) in assay [3] is 3.8 nM; in assay [4], 7800 nM.

On to `CN(CCC(C)(C)N)c1nc(-c2ccncc2)nc2cnccc12` [Example 315, N^1,3-dimethyl-N^1-(2-(pyridin-4-yl)pyrido[3,4-d]pyrimidin-4-yl)butane-1,3-diamine], for which the figures for the IC50 in assay [3] and in assay [4] were 5 nM and 5700 nM, respectively.

As for `CC(C)(CN)CNc1nc(-c2ccncc2)nc2cnccc12` [Example 317, 2,2-dimethyl-N^1-(2-(pyridin-4-yl)pyrido[3,4-d]pyrimidin-4-yl)propane-1,3-diamine], the 50% inhibitory concentration (IC50) in assay [3] was determined as 0.8 nM; in assay [4], 3200 nM.

Turning to `CC(C)(CC(N)=O)Nc1nc(-c2ccncc2)nc2cnccc12` [Example 318, 3-methyl-3-((2-(pyridin-4-yl)pyrido[3,4-d]pyrimidin-4-yl)amino)butanamide], the IC50 in assay [3] was 1.8 nM; in assay [4] it was 3100 nM.

`FC(F)(F)[C@H]1CN(c2nc(-c3ccncc3)nc3cnccc23)CCN1` [Example 319, (R)-2-(pyridin-4-yl)-4-(3-(trifluoromethyl)piperazin-1-yl)pyrido[3,4-d]pyrimidine]: the half-maximal inhibitory concentration (IC50) in assay [3] was 58.1 nM; in assay [4], greater than 10000 nM.

With `CC(C)(N)C(C)(C)Nc1nc(-c2ccncc2)nc2cnccc12` [Example 320, 2,3-dimethyl-N^2-(2-(pyridin-4-yl)pyrido[3,4-d]pyrimidin-4-yl)butane-2,3-diamine], the concentration for half-maximal inhibition (IC50) in assay [3] came out at 0.7 nM; in assay [4] it was 1000 nM.

Regarding `CC(C)(Nc1nc(-c2ccncc2)nc2cnccc12)C(N)=O` [Example 326, 2-methyl-2-((2-(pyridin-4-yl)pyrido[3,4-d]pyrimidin-4-yl)amino)propanamide], in assay [3], it took 57.2 nM to reach half-maximal inhibition (IC50).

Compound `C[C@](O)(CNc1cc(-c2ccncc2)nc2cnccc12)C(F)(F)F` [Example 327, (S)-1,1,1-trifluoro-2-methyl-3-((2-(pyridin-4-yl)-1,7-naphthyridin-4-yl)amino)propan-2-ol] yielded an IC50 in assay [3] of 125 nM.

In assay [3], `CC(C)(CCNC(=O)OC(C)(C)C)Nc1nc(-c2ccncc2)nc2cnccc12` [Example 328, tert-butyl (3-methyl-3-((2-(pyridin-4-yl)pyrido[3,4-d]pyrimidin-4-yl)amino)butyl)carbamate] gave an IC50 of 18.9 nM.

The compound `CN(C)CC(C)(C)CN(C)c1nc(-c2ccncc2)nc2cnccc12` [Example 329, N^1,N^1,N^3,2,2-pentamethyl-N^3-(2-(pyridin-4-yl)pyrido[3,4-d]pyrimidin-4-yl)propane-1,3-diamine] had an IC50 in assay [3] of 3 nM.

With `CCN(CC)CCC(C)(C)Nc1nc(-c2ccncc2)nc2cnccc12` [Example 330, N,N-diethyl-3-methyl-N^3-(2-(pyridin-4-yl)pyrido[3,4-d]pyrimidin-4-yl)butane-1,3-diamine], it took 3.1 nM to reach half-maximal inhibition in assay [3] (IC50).

For `CN(C)CCC(C)(C)Nc1nc(-c2ccnc(F)c2)nc2cnccc12` [Example 331, N^3-(2-(2-fluoropyridin-4-yl)pyrido[3,4-d]pyrimidin-4-yl)-N^1,N^1,3-trimethylbutane-1,3-diamine], half-maximal inhibition in assay [3] (IC50) was put at 10.5 nM.

`Cc1n[nH]c(C)c1-c1nc(NC(C)(C)CCN(C)C)c2ccncc2n1` [Example 332, N^3-(2-(3,5-dimethyl-1H-pyrazol-4-yl)pyrido[3,4-d]pyrimidin-4-yl)-N^1,N^1,3-trimethylbutane-1,3-diamine]: the IC50 in assay [3] came to 7.6 nM.

Regarding `CN(C)CCC(C)(C)Nc1nc(-c2c[nH]nc2C(F)(F)F)nc2cnccc12` [Example 333, N^1,N,3-trimethyl-N^3-(2-(3-(trifluoromethyl)-1H-pyrazol-4-yl)pyrido[3,4-d]pyrimidin-4-yl)butane-1,3-diamine], the IC50 in assay [3] worked out at 2.3 nM.

In turn, `CN(C)CCC(C)(C)Nc1nc(-c2ccnc(N)c2)nc2cnccc12` [Example 334, N^3-(2-(2-aminopyridin-4-yl)pyrido[3,4-d]pyrimidin-4-yl)-N^1,N^1,3-trimethylbutane-1,3-diamine] displayed an IC50 in assay [3] of 6.1 nM.
